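Five concentrations, 48 hours, 96-well plates. The concentration for full growth arrest is given as TGI.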
Assays:
Test in all cases: DTP human tumour cell line panel, 48 h
RPMI-8226 leukemia = system: RPMI-8226 leukemia
HCC-2998 colon = system: HCC-2998 colon
DMS 273 small cell lung = system: DMS 273 small cell lung
SNB-78 CNS = system: SNB-78 CNS
SK-MEL-28 melanoma = system: SK-MEL-28 melanoma
NCI-H460 lung = system: NCI-H460 lung
CCRF-CEM leukemia = system: CCRF-CEM leukemia
NCI-H23 lung = system: NCI-H23 lung
KM20L2 colon = system: KM20L2 colon
U251 CNS = system: U251 CNS
NCI-H226 lung = system: NCI-H226 lung
HCT-116 colon = system: HCT-116 colon
M14 melanoma = system: M14 melanoma
OVCAR-4 ovarian = system: OVCAR-4 ovarian
SNB-75 CNS = system: SNB-75 CNS
HOP-62 NSCLC = system: HOP-62 NSCLC
DLD-1 colon = system: DLD-1 colon
LOX IMVI melanoma = system: LOX IMVI melanoma
K-562 leukemia = system: K-562 leukemia
NCI-H522 lung = system: NCI-H522 lung
LXFL 529 NSCLC = system: LXFL 529 NSCLC
MOLT-4 leukemia = system: MOLT-4 leukemia
786-0 renal = system: 786-0 renal
SNB-19 CNS = system: SNB-19 CNS
HL-60(TB) leukemia = system: HL-60(TB) leukemia
RXF 393 renal = system: RXF 393 renal
SF-539 CNS = system: SF-539 CNS
COLO 205 colon = system: COLO 205 colon
HOP-92 NSCLC = system: HOP-92 NSCLC
ACHN renal = system: ACHN renal
SF-268 CNS = system: SF-268 CNS
KM12 colon = system: KM12 colon
OVCAR-8 ovarian = system: OVCAR-8 ovarian
A549 NSCLC = system: A549 NSCLC
OVCAR-3 ovarian = system: OVCAR-3 ovarian
UO-31 renal = system: UO-31 renal
TK-10 renal = system: TK-10 renal
M19-MEL melanoma = system: M19-MEL melanoma
SR leukemia = system: SR leukemia
OVCAR-5 ovarian = system: OVCAR-5 ovarian
UACC-62 melanoma = system: UACC-62 melanoma
SK-OV-3 ovarian = system: SK-OV-3 ovarian
SW-620 colon = system: SW-620 colon
HT29 colon = system: HT29 colon
UACC-257 melanoma = system: UACC-257 melanoma
IGROV1 ovarian = system: IGROV1 ovarian
SF-295 CNS = system: SF-295 CNS
EKVX NSCLC = system: EKVX NSCLC
A498 renal = system: A498 renal
SN12C renal = system: SN12C renal
DMS 114 small cell lung = system: DMS 114 small cell lung
SK-MEL-2 melanoma = system: SK-MEL-2 melanoma
MALME-3M melanoma = system: MALME-3M melanoma
HCT-15 colon = system: HCT-15 colon

`Cc1cnc(-c2ccccc2)o1` gave a TGI (RPMI-8226 leukemia) greater than 100 µM, a TGI (HCC-2998 colon) greater than 100 µM and a TGI (DMS 273 small cell lung) greater than 100 µM. For the same compound, the TGI (SNB-78 CNS) was greater than 100 µM, the TGI (SK-MEL-28 melanoma) was greater than 100 µM and the TGI (NCI-H460 lung) was greater than 100 µM. It also gave a TGI (CCRF-CEM leukemia) greater than 100 µM, a TGI (NCI-H23 lung) greater than 100 µM and a TGI (KM20L2 colon) greater than 100 µM. For the same compound, the TGI (U251 CNS) was greater than 100 µM, the TGI (NCI-H226 lung) was greater than 100 µM and the TGI (HCT-116 colon) was greater than 100 µM. For the same compound, the TGI (M14 melanoma) was greater than 100 µM, the TGI (OVCAR-4 ovarian) was greater than 100 µM and the TGI (SNB-75 CNS) was greater than 100 µM. For the same compound, the TGI (HOP-62 NSCLC) was greater than 100 µM, the TGI (DLD-1 colon) was greater than 100 µM and the TGI (LOX IMVI melanoma) was greater than 100 µM. The TGI (K-562 leukemia) was greater than 100 µM, the TGI (NCI-H522 lung) was greater than 100 µM and the TGI (LXFL 529 NSCLC) was greater than 100 µM. For the same compound, the TGI (MOLT-4 leukemia) was greater than 100 µM, the TGI (786-0 renal) was greater than 100 µM and the TGI (SNB-19 CNS) was greater than 100 µM. For the same compound, the TGI (HL-60(TB) leukemia) was greater than 100 µM, the TGI (RXF 393 renal) was greater than 100 µM and the TGI (SF-539 CNS) was greater than 100 µM.
In the case of `S=c1[nH]nc(-c2ccccc2)n1/N=C\c1ccc(-c2ccc(Cl)cc2)o1`, the TGI (RPMI-8226 leukemia) is reported as greater than 100 µM, the TGI (COLO 205 colon) is reported as greater than 100 µM and the TGI (HOP-92 NSCLC) is reported as greater than 100 µM. It also gave a TGI (SNB-78 CNS) greater than 100 µM, a TGI (SK-MEL-28 melanoma) greater than 100 µM and a TGI (NCI-H460 lung) greater than 100 µM. For the same compound, the TGI (NCI-H23 lung) was greater than 100 µM, the TGI (KM20L2 colon) was greater than 100 µM and the TGI (U251 CNS) was greater than 100 µM. For the same compound, the TGI (ACHN renal) was greater than 100 µM, the TGI (SF-268 CNS) was greater than 100 µM and the TGI (KM12 colon) was greater than 100 µM. The TGI (OVCAR-8 ovarian) was greater than 100 µM, the TGI (A549 NSCLC) was greater than 100 µM and the TGI (NCI-H226 lung) was greater than 100 µM. The TGI (OVCAR-3 ovarian) was greater than 100 µM, the TGI (UO-31 renal) was greater than 100 µM and the TGI (HCT-116 colon) was greater than 100 µM. The TGI (M14 melanoma) was greater than 100 µM, the TGI (OVCAR-4 ovarian) was greater than 100 µM and the TGI (SNB-75 CNS) was greater than 100 µM. It also gave a TGI (TK-10 renal) greater than 100 µM, a TGI (M19-MEL melanoma) greater than 100 µM and a TGI (SR leukemia) greater than 100 µM. It also gave a TGI (OVCAR-5 ovarian) greater than 100 µM, a TGI (UACC-62 melanoma) greater than 100 µM and a TGI (HOP-62 NSCLC) greater than 100 µM. It also gave a TGI (SK-OV-3 ovarian) greater than 100 µM, a TGI (SW-620 colon) greater than 100 µM and a TGI (DLD-1 colon) greater than 100 µM. It also gave a TGI (LOX IMVI melanoma) greater than 100 µM, a TGI (K-562 leukemia) greater than 100 µM and a TGI (NCI-H522 lung) greater than 100 µM. It also gave a TGI (HT29 colon) greater than 100 µM, a TGI (LXFL 529 NSCLC) greater than 100 µM and a TGI (MOLT-4 leukemia) greater than 100 µM. For the same compound, the TGI (786-0 renal) was greater than 100 µM, the TGI (SNB-19 CNS) was greater than 100 µM and the TGI (UACC-257 melanoma) was greater than 100 µM. It also gave a TGI (HL-60(TB) leukemia) greater than 100 µM, a TGI (IGROV1 ovarian) greater than 100 µM and a TGI (SF-295 CNS) greater than 100 µM. For the same compound, the TGI (SF-539 CNS) was greater than 100 µM.
`O=C1C=C(Nc2ccc(Br)cc2)c2ccccc2C1=O` gave a TGI (RPMI-8226 leukemia) of 24.9 µM, a TGI (HCC-2998 colon) of 28.5 µM and a TGI (COLO 205 colon) of 31 µM. For the same compound, the TGI (EKVX NSCLC) was 32.5 µM, the TGI (DMS 273 small cell lung) was 25.7 µM and the TGI (SK-MEL-28 melanoma) was 31.3 µM. The TGI (NCI-H460 lung) was 23.8 µM, the TGI (CCRF-CEM leukemia) was 32.3 µM and the TGI (NCI-H23 lung) was 15.3 µM. For the same compound, the TGI (KM20L2 colon) was 39.3 µM, the TGI (U251 CNS) was 16 µM and the TGI (ACHN renal) was 16.2 µM. The TGI (SF-268 CNS) was 27.6 µM, the TGI (A498 renal) was 31 µM and the TGI (KM12 colon) was 29.6 µM. The TGI (OVCAR-8 ovarian) was 29.3 µM, the TGI (A549 NSCLC) was 32.8 µM and the TGI (NCI-H226 lung) was 38.2 µM. The TGI (OVCAR-3 ovarian) was 19.7 µM, the TGI (SN12C renal) was 29.6 µM and the TGI (UO-31 renal) was 29.6 µM. For the same compound, the TGI (DMS 114 small cell lung) was 18 µM, the TGI (HCT-116 colon) was 26.5 µM and the TGI (SK-MEL-2 melanoma) was 30.1 µM. For the same compound, the TGI (M14 melanoma) was 28.8 µM, the TGI (MALME-3M melanoma) was 28.7 µM and the TGI (OVCAR-4 ovarian) was 6.13 µM. It also gave a TGI (SNB-75 CNS) of 23.3 µM, a TGI (TK-10 renal) of 33.8 µM and a TGI (M19-MEL melanoma) of 3.29 µM. The TGI (SR leukemia) was 16.5 µM, the TGI (OVCAR-5 ovarian) was 35.3 µM and the TGI (UACC-62 melanoma) was 15.3 µM. For the same compound, the TGI (HCT-15 colon) was 18.9 µM, the TGI (HOP-62 NSCLC) was 30.7 µM and the TGI (SK-OV-3 ovarian) was 31 µM. It also gave a TGI (SW-620 colon) of 27.2 µM, a TGI (K-562 leukemia) of 34 µM and a TGI (NCI-H522 lung) of 25.5 µM. For the same compound, the TGI (HT29 colon) was 34 µM, the TGI (LXFL 529 NSCLC) was 25.4 µM and the TGI (MOLT-4 leukemia) was 30.5 µM. For the same compound, the TGI (786-0 renal) was 28.3 µM, the TGI (SNB-19 CNS) was 29.2 µM and the TGI (UACC-257 melanoma) was 26.5 µM. The TGI (HL-60(TB) leukemia) was 22.4 µM, the TGI (IGROV1 ovarian) was 33.2 µM and the TGI (SF-295 CNS) was 29.8 µM. For the same compound, the TGI (RXF 393 renal) was 30.6 µM and the TGI (SF-539 CNS) was 30.3 µM.

Reference: PubChem BioAssay (NCI)
